The values below are quoted from earlier work in patent EP1886664A1, “N-chloroamines containing compositions” (priority 2006, dated 2008).

Read-outs that look alike come from different tables or passages of the source.

The conditions of series [1]: according to Buckley.
Series [2] concerns mouse. The note with it: inhalation, 4 hours, maximum reached concentration.
A further series deals with Skin. As to conditions: solution under 8%.
The subject of series [3] is bacterial flora in the oral cavity.
Series [4] has as its system Bacteria, Viruses, Fungi, Seaweed, Yeasts, Parasite.
Series [5] has as its system mouse. As to conditions: after 90 days.

For the compound `N=C(NCCCCCCNC(=N)NC(=N)Nc1ccc(Cl)cc1)NC(=N)Nc1ccc(Cl)cc1` [chlorexidine], the “sporicide, viruscide and microbacteria activity” value with microbacteria was “neither a sporicide, neither a viruscide and nor active against microbacteria”.

As to `Cc1ccc(S(=O)(=O)NCl)cc1` [T-chloramine, sodium N-chloro-para-toluenesulfamide], the “antiseptic power compared to hypochlorites” value in series [1] is listed as “four times higher than that of hypochlorites”. For the same compound, in [1] (in the presence of blood), the “activity compared to Dakin's liquid” value is “more active than the Dakin's liquid”. Moreover, the fraction still active entry (ambient with organic matter and microorganisms, after 24 hours) is “approximately half”. The “activity lost due to decomposition” value (solution under 5%, opaque container, 25°C, 210 days) is recorded as “less than 0.05%”. Further, the decomposed (solutions under 0.5%, 30 days, 40°C) is reported as 0.01%. In addition, the “LC 50” value in the series with mouse [2] is above 0.275 µg/mL. Moreover, in the series with Skin, the “Irritation, Skin” value was “not irritating”. Also, the “duration of antiseptic action when applied as a therapeutics” value in series [3] (in vivo) was 24 h. Besides, the “duration of strong sustainable effect after application” value in [3] (mouthrinse) is on record as “at least one”. Besides, the “Irritation, Eye” value is “not irritating” in the series on Eye (Solution under 0.5%) and “moderately irritating” in the series with Eye (solution under 8%). In [4] (including viruses and microbacteria in the vegetative form either spori or not), the biocide action result is reported as “biocide action against all forms of microorganisms”. Moreover, the activity against microorganisms entry in [4] (organisms listed in the 1st table, the 2nd table and b31) is on record as “active”. In the series with mouse [5], the “oral toxicity, level at which nothing was observed” value is reported as 15 mg/kg/day.
